Experimental findings from patent US12156860B2, “Disorders implicating PUFA oxidation” (BioJiva LLC, priority 2011, dated 2024) are described below.

Data set [1] deals with stroke-prone spontaneously hypertensive (SHRSP) rat. Briefly: SHRSP rat model of hypertension. Type of data set: in vivo. The following applies: SHRSP rats, 8 weeks. From the text:
The stroke-prone spontaneously hypertensive (SHRSP) rat model of hypertension, which has been previously described (McIntyre et al., 1997 Hypertension 30:1517; Alexander et al., 1999 Cardiovasc. Res. 43:798; Fennell et al., 2002 Gene Ther. 9:110), can be used for the assessment of a compound's ability to mitigate hypertension.

Data set [2] in a line: Kinetics of O2 consumption during AMVN-initiated oxidation in chlorobenzene (glass capillary microvolumeter). Type of data set: physicochemical. The protocol: FIG. 7. Kinetics of O2 consumption accompanied the oxidation of 0.71 M LA (plots 1 and 2) and 0.71 M D2-LA (plot 3) in chlorobenzene initiated by 40 mM AMVN at 37° C. Plot 2-0.23 mM HPMC was added to 0.71 M LA.
The kinetics of oxygen consumption during the oxidation of LA and D2-LA was studied with a glass capillary microvolumeter (FIG. 7). The rate of oxidation, ROX, was measured as a slope of [O2] traces. The rate of initiation, RIN, was determined by the inhibitor method with HPMC (“6-hydroxy-2,2,5,7,8-pentamethylbenzochroman”) as a reference inhibitor. RIN was calculated from the induction period of inhibited oxidation, tIND: RIN=2·[HPMC]/tIND. […] When the process was inhibited by 0.23 mM chain-breaking antioxidant HPMC, the duration of the induction period, tIND, was about 48 min, with the RIN value of around 0.16×10^−6 M/s. […] The latter precludes a direct determination of RIN. […] An estimated kinetic isotope effect (“KIE”), from comparison of ROX for LA and D2-LA, was around 6.1×10^−6/0.18×10^−6≈35. A similar KIE was determined during the oxidation of LA and 11,11-d2-LA in Triton X-100 aqueous micelles (data not shown). For comparative purposes, the theoretical KIE is 6.9 at 25° C. See Carpenter, “Determination of Organic Reaction Mechanisms” (John Wiley & Sons, 1984), p. 89.

The subject of a further data set is Q-less coq3 yeast. Briefly: Yeast incubated with different ratios of H- and D-PUFA, plate dilution. Type of data set: cell-based, S. cerevisiae. The following applies: 200 μM total LA and D2-LA at different ratios. The protocol:
FIG. 9. […] Wild-type, yeast Q-less coq3, or respiratory deficient cor1 null mutants were incubated in the presence of 200 μM of LA and D2-LA at different ratios of PUFAs. Serial dilutions (1:5) starting at 0.2 OD/ml were spotted on YPD solid plate medium. A zero-time untreated control is shown on the top left. Growth at 30° C.
FIG. 10. […] Serial dilutions (1:5) starting at 0.2 OD/ml were spotted on YPD solid plate medium. Growth at 30° C.
Wild-type, yeast Q-less coq3, or respiratory deficient cor1 null mutants were incubated in the presence of 200 μM of LA and D2-LA at different ratios of PUFAs, as indicated in FIG. 9. Serial dilutions (1:5) starting at 0.2 OD/ml were spotted on YPD solid plate medium. […] Growth was at 30° C.
Serial dilutions (1:5) starting at 0.2 OD/ml were spotted on YPD solid plate medium. Growth was at 30° C.

For the compound `[2H]C([2H])(/C=C\CCCCC)/C=C\CCCCCCCC(=O)O` [D2-LA, 11,11-Dideutero-cis,cis-9,12-Octadecadienoic acid], in data set [1], the systolic blood pressure entry is “reduction in systolic blood pressure”. Further, the “rate of oxidation, ROX” value in data set [2] (0.71 M in chlorobenzene, 40 mM AMVN, 37° C.) was found to be 1.8e-07 M/s. Also, the “kinetic isotope effect (KIE) from comparison of ROX for LA and D2-LA” value in data set [2] (chlorobenzene, 37° C.) is given as “≈ 35”. For the same compound, the “length of the kinetic chain, ROX/RIN” value in data set [2] (for D2-LA assuming RIN comparable to that of LA) was “≈ 1.1”. Further, in the data set on Q-less coq3 yeast, the “sufficiently minimal amount to cancel the toxicity of LA” value is on record as 10-15%.
